Test [1] relates to HCT-116. Nature of the test: Antiproliferative activity against human HCT116 cells after 24 hrs by MTT assay. The test is classed as functional, cell-based. As to conditions: HCT-116, 24 h. A general note: Tetrazolium assays rely on reduction of a dye to a coloured formazan, in cell work by metabolically active cells.
Test [2] deals with MCF7. Nature of the test: Antiproliferative activity against human MCF7 cells after 24 hrs by MTT assay. The test is classed as functional, cell-based. As to conditions: MCF7, 24 h.
Test [3] has as its target CDK2/Cyclin A2 (Homo sapiens, UniProt P24941). Nature of the test: Inhibition of full-length human CDK2/N-terminal GST-tagged Cyclin A2 (1 to 432 residues) expressed in Baculovirus expression system using FAM-P8/P18 as substrate measured after 40 mins.
For test [4], the target named is Cyclin-dependent kinase 5 (Homo sapiens, UniProt Q00535). Nature of the test: Inhibition of CDK5 (unknown origin).
The target in test [5] is Cyclin-dependent kinase 7 (Homo sapiens, UniProt P50613). Briefly: Inhibition of CDK7 (unknown origin).
The target in test [6] is Cyclin-dependent kinase 6 (Homo sapiens, UniProt Q00534). Nature of the test: Inhibition of CDK6 (unknown origin).
In test [7] the target is Cyclin-dependent kinase 1 (Homo sapiens, UniProt P06493). Briefly: Inhibition of CDK1 (unknown origin).
Test [8] has as its target Cyclin-dependent kinase 4 (Homo sapiens, UniProt P11802). Briefly: Inhibition of CDK4 (unknown origin).

For 23 compounds, IC50 results are on record in ChEMBL document CHEMBL4265909, “Synthesis and biological evaluation of novel 5,6-dihydropyrimido[4,5-f]quinazoline derivatives as potent CDK2 inhibitors” (Bioorg Med Chem Lett, 2018).

Molecules are shown by their SMILES.

What is called IC50 is the concentration at which inhibition is half-maximal. Low values mean higher potency, high ones lower potency.

Sequence of Cyclin-dependent kinase 1 (P06493 whole entry): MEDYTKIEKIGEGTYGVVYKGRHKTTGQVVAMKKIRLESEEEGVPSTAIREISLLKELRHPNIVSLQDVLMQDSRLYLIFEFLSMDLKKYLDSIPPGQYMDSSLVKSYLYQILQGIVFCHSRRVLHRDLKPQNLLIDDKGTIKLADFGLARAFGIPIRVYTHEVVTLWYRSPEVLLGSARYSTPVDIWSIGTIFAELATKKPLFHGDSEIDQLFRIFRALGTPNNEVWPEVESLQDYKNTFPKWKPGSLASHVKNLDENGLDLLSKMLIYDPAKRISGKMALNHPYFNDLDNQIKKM
Sequence of Cyclin-dependent kinase 6 (Q00534 whole entry): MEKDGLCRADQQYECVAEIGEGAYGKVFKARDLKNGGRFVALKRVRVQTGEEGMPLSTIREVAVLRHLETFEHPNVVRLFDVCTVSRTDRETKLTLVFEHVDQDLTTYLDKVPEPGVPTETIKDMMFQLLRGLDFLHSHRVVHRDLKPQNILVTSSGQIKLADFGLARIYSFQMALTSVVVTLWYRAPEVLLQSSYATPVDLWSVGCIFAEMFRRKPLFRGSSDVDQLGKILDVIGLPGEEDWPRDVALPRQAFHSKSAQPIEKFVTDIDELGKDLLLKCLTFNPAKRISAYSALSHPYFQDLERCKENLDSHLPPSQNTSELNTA
Sequence of Cyclin-dependent kinase 5 (Q00535 whole entry): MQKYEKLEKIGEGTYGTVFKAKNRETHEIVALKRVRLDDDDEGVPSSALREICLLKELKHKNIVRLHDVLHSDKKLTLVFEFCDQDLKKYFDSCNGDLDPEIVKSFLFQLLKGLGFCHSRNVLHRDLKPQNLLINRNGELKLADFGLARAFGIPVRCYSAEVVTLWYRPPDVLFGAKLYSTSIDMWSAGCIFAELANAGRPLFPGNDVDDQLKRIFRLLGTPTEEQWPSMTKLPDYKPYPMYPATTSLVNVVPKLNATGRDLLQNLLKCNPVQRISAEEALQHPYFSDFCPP
Sequence of Cyclin-dependent kinase 4 (P11802 whole entry): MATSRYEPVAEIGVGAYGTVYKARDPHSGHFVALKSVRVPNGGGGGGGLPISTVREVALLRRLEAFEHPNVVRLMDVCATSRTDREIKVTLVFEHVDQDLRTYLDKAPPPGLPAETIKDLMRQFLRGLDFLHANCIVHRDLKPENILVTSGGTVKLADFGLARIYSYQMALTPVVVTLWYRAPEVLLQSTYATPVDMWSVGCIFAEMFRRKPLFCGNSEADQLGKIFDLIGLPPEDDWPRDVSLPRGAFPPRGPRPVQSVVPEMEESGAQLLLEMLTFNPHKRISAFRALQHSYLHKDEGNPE
Sequence of Cyclin-dependent kinase 7 (P50613 whole entry): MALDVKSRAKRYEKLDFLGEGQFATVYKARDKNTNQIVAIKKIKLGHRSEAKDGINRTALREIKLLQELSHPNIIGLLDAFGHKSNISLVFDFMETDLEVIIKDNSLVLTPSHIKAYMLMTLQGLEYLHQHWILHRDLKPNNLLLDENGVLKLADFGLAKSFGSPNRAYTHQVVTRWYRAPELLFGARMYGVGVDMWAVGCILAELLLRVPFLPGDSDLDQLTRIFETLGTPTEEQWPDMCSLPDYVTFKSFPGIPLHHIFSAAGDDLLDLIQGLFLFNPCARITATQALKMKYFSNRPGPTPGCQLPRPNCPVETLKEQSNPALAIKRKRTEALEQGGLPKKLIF

Take `CSc1ncc2c(n1)CCc1cnc(Nc3ccc(C(=O)N4CCOCC4)cc3)nc1-2`: the figures for the IC50 in test [1], in test [2] and in test [3] were 3.2 µM, 2.1 µM and 190 nM, respectively.
Consider `CSc1ncc2c(n1)CCc1cnc(Nc3ccccc3)nc1-2`, for which the IC50 in test [1] is 12.7 µM; in test [2], 15.6 µM; in test [3], 410 nM.
Turning to `CCOC(=O)c1ccc(Nc2ncc3c(n2)CCc2cnc(N)nc2-3)cc1`, the IC50 in test [1] and in test [2] was > 30 µM each time.
As to `CSc1ncc2c(n1)CCc1cnc(Nc3ccc(Cl)cc3)nc1-2`, the values for the IC50 in test [1], in test [2] and in test [3] were 8.3 µM, 7 µM and 380 nM, respectively.
As to `CSc1ncc2c(n1)CCc1cnc(Nc3ccc(F)cc3)nc1-2`, the IC50 in test [1] stood at 7.9 µM; in test [2], 8.4 µM; in test [3] it was 350 nM.
For the compound `CSc1ncc2c(n1)CCc1cnc(Nc3ccc(C(=O)N(C)C)cc3)nc1-2`, the half-maximal inhibitory concentration (IC50) in test [1] was 5.3 µM; in test [2], 3.7 µM; in test [3], 530 nM.
On to `CC(C)(C)c1cnc(CSc2cnc(NC(=O)C3CCNCC3)s2)o1` [BMS-387032], for which the IC50 in test [1] was determined as 0.7 µM; in test [2] it was 1 µM.
In the case of `Nc1ncc2c(n1)-c1cnc(Nc3ccccc3)nc1CC2`, the IC50 in test [1] was 25.3 µM; in test [2], 27.6 µM; in test [3], 1700 nM.
Regarding `CSc1ncc2c(n1)CCc1cnc(Nc3ccc(C(=O)N4CCN(C)CC4)cc3)nc1-2`, the IC50 in test [1] is 3.8 µM; in test [2] it was 2.5 µM; in test [3] it was 180 nM.
`CSc1ncc2c(n1)CCc1cnc(Nc3ccc(C(=O)N(C)CCN(C)C)cc3)nc1-2`: the IC50 was 680 nM in test [4]; 1.4 µM in test [1]; 3.6 µM in test [5]; 1.1 µM in test [2]; > 5 µM in test [6]; 1250 nM in test [7]. The IC50 in test [3] was 90 nM; in test [8], > 5 µM.
For the compound `CSc1ncc2c(n1)CCc1cnc(Nc3ccc(C(=O)O)cc3)nc1-2`, the IC50 in test [1] is 12.8 µM; in test [2] it was 17.8 µM; in test [3] it was 980 nM.
Take `CN1CCN(C(=O)c2ccc(Nc3ncc4c(n3)CCc3cnc(N)nc3-4)cc2)CC1`: the IC50 in test [1] is > 30 µM; in test [2], > 30 µM; in test [3], 5900 nM.
For `c1ccc(Nc2ncc3c(n2)CCc2cnc(Nc4ccccc4)nc2-3)cc1`, the IC50 in test [1] amounted to 18.1 µM; in test [2], 20.6 µM; in test [3] it was 1540 nM.
Regarding `CSc1ncc2c(n1)CCc1cnc(Nc3ccc(N)cc3)nc1-2`, the results for the IC50 in test [1], in test [2] and in test [3] were 1.6 µM, 1.4 µM and 160 nM, respectively.
For `CSc1ncc2c(n1)CCc1cnc(Nc3ccc(C(N)=O)cc3)nc1-2` the same measures were 0.9 µM, 1.3 µM and 110 nM.
As to `Nc1ncc2c(n1)-c1cnc(Nc3ccc(C(=O)N4CCOCC4)cc3)nc1CC2`, the IC50 in test [1] and in test [2] was > 30 µM in each case.
With `Clc1ccc(Nc2ncc3c(n2)-c2cnc(Nc4ccccc4)nc2CC3)cc1`, the IC50 in test [1] worked out at 26.3 µM; in test [2], 23.5 µM; in test [3], 2030 nM.
For `Nc1ncc2c(n1)-c1cnc(Nc3ccc(Cl)cc3)nc1CC2` the same measures were > 30 µM, > 30 µM and 1850 nM.
As to `CSc1ncc2c(n1)CCc1cnc(Nc3ccc(C(=O)NC4CCCC4)cc3)nc1-2`, the results for the IC50 in test [1], in test [2] and in test [3] were 9.1 µM, 6.5 µM and 1260 nM, respectively.
With `CN(C)CCN(C)C(=O)c1ccc(Nc2ncc3c(n2)CCc2cnc(N)nc2-3)cc1`, the values for the IC50 in test [1], in test [2] and in test [3] were > 30 µM, > 30 µM and 3200 nM, respectively.
Regarding `CSc1ncc2c(n1)CCc1cnc(Nc3ccc(C(=O)N4CCN(C(=O)OC(C)(C)C)CC4)cc3)nc1-2`, the IC50 in test [1] worked out at 17.2 µM; in test [2] it was 19.4 µM; in test [3] it was 3700 nM.
For `CCOC(=O)c1ccc(Nc2ncc3c(n2)-c2cnc(SC)nc2CC3)cc1`, the figures for the IC50 in test [1], in test [2] and in test [3] were 14.3 µM, 25.4 µM and 1250 nM, respectively.
Turning to `CSc1ncc2c(n1)CCc1cnc(Nc3ccc(C(=O)N4CCNCC4)cc3)nc1-2`, the IC50 is 1.3 µM in test [1], 1.5 µM in test [2] and 160 nM in test [3].
